Results published in publication PMC11289669, “BAR502/fibrate conjugates: synthesis, biological evaluation and metabolic profile” (Frontiers in Chemistry, 2024).
“And” between values parts separate entries of the source, which are not always exact repeats. Equal values may be shown once.

Key:
FXR [1] = target: T1, FXR (Homo sapiens, UniProt Q96RI1); test: FXR transactivation (luciferase reporter) assay in HepG2 cells; assay type: cell-based; settings: HepG2 cells
T1 construct: expressed in transfected cells; host or cells: HepG2 (the text says EC50 dose-response curves were run in HEK-293T)
T1 sequence (Q96RI1 1-486): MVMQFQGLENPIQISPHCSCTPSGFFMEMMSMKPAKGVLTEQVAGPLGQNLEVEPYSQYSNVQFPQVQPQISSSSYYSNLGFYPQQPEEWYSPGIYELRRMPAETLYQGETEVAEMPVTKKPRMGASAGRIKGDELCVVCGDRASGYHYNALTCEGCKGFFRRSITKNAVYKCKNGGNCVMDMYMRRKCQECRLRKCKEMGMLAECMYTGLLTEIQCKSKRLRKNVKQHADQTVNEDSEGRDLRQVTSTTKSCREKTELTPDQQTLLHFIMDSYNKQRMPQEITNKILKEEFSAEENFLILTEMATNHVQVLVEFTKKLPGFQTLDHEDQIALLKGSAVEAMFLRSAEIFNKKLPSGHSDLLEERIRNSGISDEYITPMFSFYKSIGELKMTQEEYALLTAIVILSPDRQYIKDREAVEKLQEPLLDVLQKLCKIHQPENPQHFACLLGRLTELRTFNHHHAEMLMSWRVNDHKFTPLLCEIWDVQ
T1 sequence (P19793 1-462 partner): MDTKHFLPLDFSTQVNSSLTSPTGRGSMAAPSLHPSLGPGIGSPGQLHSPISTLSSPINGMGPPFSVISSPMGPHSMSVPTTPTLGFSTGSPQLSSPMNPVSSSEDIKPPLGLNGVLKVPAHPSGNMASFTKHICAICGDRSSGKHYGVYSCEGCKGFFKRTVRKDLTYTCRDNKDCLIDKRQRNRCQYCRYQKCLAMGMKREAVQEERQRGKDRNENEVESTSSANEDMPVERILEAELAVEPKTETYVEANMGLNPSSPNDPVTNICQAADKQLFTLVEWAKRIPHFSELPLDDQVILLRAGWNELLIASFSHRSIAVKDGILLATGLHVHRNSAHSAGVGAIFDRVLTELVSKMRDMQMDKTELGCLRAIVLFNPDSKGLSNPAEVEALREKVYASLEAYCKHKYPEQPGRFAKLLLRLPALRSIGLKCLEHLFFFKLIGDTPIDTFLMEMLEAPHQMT
Experimental: (§1) HepG2 and HEK-293T cells were cultured at 37 °C in minimal essential medium (MEM) and Dulbecco’s Modified Eagle Medium (DMEM) respectively, supplemented with 10% fetal bovine serum, 1% L-glutamine, 100 U/mL penicillin, and 100 μg/mL streptomycin. To investigate FXR-mediated transactivation, the HepG2 cells were transfected with 200 ng of the reporter vector p (hsp27)TK-Luc containing the FXR response element IR1 cloned from the promoter of heat shock protein 27 (hsp27), plus 100 ng pSG5-FXR, 100 ng pSG5-RXR, and 100 ng pGL4.70 Renilla. To evaluate GPBAR1 mediated transactivation, HEK-293T cells were transfected with 200 ng of human pGL4.29 (Promega), a reporter vector containing a cAMP response element (CRE) that drives the transcription of the luciferase reporter gene luc2P, with 100 ng of pCMVSPORT6-human GPBAR1, and with 100 ng of pGL4.70. At 24 h post-transfection, cells were stimulated 18 h with 10 μM TLCA (taurolithocholic acid a GPBAR1 agonist) or CDCA (FXR agonist) and compounds. To calculate the EC50 on FXR and GPBAR1, dose-response curves were performed in HEK-293T cells transfected as described above and then treated with increasing concentrations of compounds (from 0.1 to 50 µM). After treatments, cells were lysed in 100 μL of lysis buffer (25 mM Tris-phosphate, pH 7.8; 2 mM DTT; 10% glycerol; 1% Triton X-100), and 10 μL of cellular lysate was assayed for luciferase activity using the Firfly &Renilla Luciferase assay kit (Biotium). Luminescence was measured using Glomax 20/20 luminometer (Promega). Luciferase activities were assayed and normalized with Renilla activities.

FXR [2] = target: T2, FXR (Homo sapiens, UniProt Q96RI1); test: AlphaScreen coactivator (SRC-1) recruitment assay on FXR; assay type: biochemical; settings: for FXR efficacy (% vs. CDCA): AlphaScreen SRC-1 recruitment, compounds at 10 μM, CDCA = 100%; for EC50: AlphaScreen coactivator recruitment, FXR with SRC-1
T2 sequence (Q96RI1 262-486 limits assumed): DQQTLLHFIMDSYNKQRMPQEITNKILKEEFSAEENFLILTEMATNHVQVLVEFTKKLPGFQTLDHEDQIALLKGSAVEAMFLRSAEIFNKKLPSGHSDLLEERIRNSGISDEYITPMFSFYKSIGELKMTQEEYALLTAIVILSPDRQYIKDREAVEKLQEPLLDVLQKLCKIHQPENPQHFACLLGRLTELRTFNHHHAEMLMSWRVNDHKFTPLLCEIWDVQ
Experimental: Compounds’ ability to mediate cofactor recruitment was evaluated by employing AlphaScreen GST Detection Kit (PerkinElmer). Particularly, FXR agonism was evaluated employing 10 nM FXR-LBD GST-fused (Thermo Scientific) and 30 nM of biotinylated SRC1 peptide ([…]) in the presence of 20 μg/mL donor and acceptor beads and in buffer containing 50 mM Tris-HCl (pH7.4), 20 mM KCl, 1 mM DTT, and 0.1% BSA. For PPARα assay, a buffer containing 50 mM MOPS, 50 mM NaF, 0.05 mM CHAPS, and 0.05% BSA (pH = 7.4) was used, and 20 nM PPARα LBD GST fused (Thermo Scientific) and 60 nM of biotinylated SRC1 peptide were employed. Both acceptor and donor beads were added to reach 20 μg/mL final concentration. Incubations were performed in a final volume of 25 μL employing 384 wells Optiplate and Alpha signal was measured with Envision 2,105 (Perkin Elmer) multimode plate reader. For efficacy, compounds were tested at 10 μM for FXR and 50 μM for PPARα.

GPBAR1 = target: T3, GPBAR1 (Homo sapiens, UniProt Q8TDU6); test: GPBAR1 transactivation (CRE-luciferase reporter) assay in HEK-293T cells; assay type: cell-based; settings: for Emax: 18 h, read-out: GPBAR1 efficacy (% vs. TLCA); for EC50: transactivation assay, HEK-293T cells
T3 construct: expressed in transfected cells; host or cells: HEK-293T
T3 sequence (Q8TDU6 1-330): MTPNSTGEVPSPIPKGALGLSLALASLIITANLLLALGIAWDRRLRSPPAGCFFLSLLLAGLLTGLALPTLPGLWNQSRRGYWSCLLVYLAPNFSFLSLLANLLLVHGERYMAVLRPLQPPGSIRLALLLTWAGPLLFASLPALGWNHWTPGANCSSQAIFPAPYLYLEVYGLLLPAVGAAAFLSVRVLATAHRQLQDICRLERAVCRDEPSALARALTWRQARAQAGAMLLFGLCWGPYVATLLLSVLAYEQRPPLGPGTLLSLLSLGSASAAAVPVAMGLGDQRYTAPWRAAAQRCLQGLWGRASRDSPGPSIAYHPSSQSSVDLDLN
Experimental: as §1

[3] = transactivation on HEK-293T cells, TLCA 10 μM = 100%

SMILES	EC50 (FXR [1]) [nM]	FXR efficacy (% vs. CDCA) (FXR [2])	EC50 (FXR [2]) [nM]	Emax (GPBAR1; [3]) [%]	EC50 (GPBAR1) [nM]	GPBAR1 efficacy (% vs. TLCA) (GPBAR1; [3]) [%]
CC[C@H]1[C@@H](O)[C@@H]2[C@H](CC[C@]3(C)[C@@H]([C@H](C)CCO)CC[C@@H]23)[C@@]2(C)CC[C@@H](O)C[C@@H]12 [BAR502, 6α-ethyl-3α,7α-dihydroxy-24-nor-5β-cholan-23-ol]	2000 ± 200	153.0 ± 3.1%	690 ± 150	79.5 ± 11.8	400 ± 100	–
CC[C@@H]1C2C[C@H](O)CC[C@]2(C)C2CC[C@@]3(C)C(CC[C@@H]3[C@H](C)CCOC(=O)C(C)(C)Oc3ccc(Cl)cc3)C2[C@@H]1O (some centres unmarked) [Compound 1]	2800 ± 10	79% and 79.0 ± 3.8%	3400 ± 1200	145	370 ± 20	145 ± 10
